Where no end group is shown, it is not given here.
Columns and labels:
[1] = tested on: BMDCs; test: Antigen-presentation assay using the B3Z reporter system, BMDCs; assay type: cell-based, mouse; settings: for antigen cross-presentation of OVA (B3Z response) vs OVA alone / antigen-presentation activity of cholic acid-NLS peptide conjugates (B3Z response): BMDCs; for antigen cross-presentation of OVA (B3Z response) vs OVA alone: OVA mixed with bile acid/peptide/conjugate, molar ratio 4:1; for antigen-presentation activity of cholic acid-NLS peptide conjugates (B3Z response): OVA admixed, best conjugate: antigen ratio
Protocol: Mouse bone marrow derived DCs (BMDCs) were generated by flushing the whole marrow from mouse femurs using RPMI™ 1640 supplemented with 10% fetal bovine serum (FBS), 50 U/mL Penicillin-Streptomycin, 2 mM L-glutamine, 10 mM HEPES, 1% MEM Non-essential Amino Acids, 1 mM Sodium Pyruvate, 0.5 mM beta-mercaptoethanol. Following red blood cell lysis, cells were then cultured in media supplemented with 50 ng/mL murine recombinant GM-CSF. The media was changed on days 2, 4, 6 and 8. On day 9, the media was replaced to include recombinant murine GM-CSF and LPS from Escherichia coli 0111 (1 ng/mL) to stimulate DC maturation. Mature DCs were assessed by flow cytometry for their surface expression of CD3, CD19, NK1.1, CD11c, CD80, CD86, and I-A^b.
(§1) Various bile acid-NLS conjugates were screened using the B3Z reporter system. The B3Z cell line is a T-cell hybridoma specific for the H2-K^b-[…] complex. Once activated via its TCR, the LacZ reporter gene (under the NFAT promoter control) is expressed. Briefly, 1.5×10^5 BMDCs or 2.5×10^5 MSCs were co-cultured with 5×10^4 B3Z cells treated with the mixing conditions of ovalbumin (OVA) and bile acid-NLS conjugates for overnight at 37° C. with 5% CO2. The following day, all cells were washed twice with PBS (pH 7.4), and the cell pellets were lysed by adding 100 μL of a lysis buffer containing 0.15 mM chlorophenol red-beta-D-galactopyranoside (CPRG) substrate (Calbiochem, La Jolla, CA), 0.125% NP40 (EMD Sciences, La Jolla, CA), 9 mM MgCl2 (Aldrich, USA) and 100 mM 2-mercaptoethanol in PBS. After a 5- or 24-h incubation at 37° C., absorbance was taken at 570 nm with 636 nm as the reference wavelength. For these experiments, OVA was re-suspended in PBS (pH 7.3) at 5-10 mg/mL. The different bile acid-NLS conjugates were re-suspended in H2O at 10 mg/mL. Bile acid-NLS conjugate: antigen mixtures were prepared at different molar ratios according to Table 1.
Variants of CA-SV40NLS were synthesized in order to explore structure-activity relationships relating to the antigen cross-presentation enhancing activity observed for this conjugate, and therefore a measure of antigen/cargo delivery. More particularly, conjugates having different bile acids conjugated to the SV40NLS peptide (SEQ ID NO: 1) were synthesized and their effect on antigen presentation was evaluated by using the B3Z reporter system with the OVA antigen as described in Example 1. […] In FIG. 11, no increase in antigen cross-presentation in BMDCs over the antigen alone (“OVA”) was observed when OVA was mixed with either unconjugated cholic acid (“CA”) or SV40NLS peptide (“SV40NLS”), although lower sensitivity of the B3Z reporter system as compared to the OT-I CD8 T cell-based assay may have been a factor.
(§2) Further variants of CA-SV40NLS were synthesized in which the SV40NLS peptide was replaced with peptides comprising other NLS's (Table 5) and the antigen presentation activities of the CA-NLS peptide conjugates were evaluated using the B3Z reporter system as described in Example 1. The following conjugate: antigen molar ratios were tested for each conjugate: 2:1, 4:1, 8:1, 12:1 and 22:1. The results in FIGS. 12-15 compare the antigen presentation activities of different conjugates at the conjugate: antigen ratio that yielded the highest B3Z response (OD570) for that conjugate.

[2] = tested on: WT MSCs; test: Antigen cross-presentation assay on wild-type MSCs with B3Z cells; assay type: cell-based, mouse; settings: WT MSCs treated with CA-hnRNPA1 and OVA
Protocol: In order to generate Bone marrow (BM)-derived mouse MSCs, the femurs of 6-8-week-old female Balb/c or C57BL/6 mice were isolated and flushed with Alpha Modification of Eagle's Medium (AMEM) supplemented with 10% FBS and 50 U/mL Penicillin-Streptomycin in a 10 cm cell culture dish, then incubated at 37° C. Two days later, non-adherent cells were removed and the media replaced every 3 to 4 days until plastic-adherent cells reached 80% confluency. The generated cells were detached using 0.05% trypsin and expanded until a uniform MSC population was obtained. The generated MSCs were validated for their innate phenotype by flow-cytometry for the expression of CD44, CD45, CD73, and CD90. The cells were frozen in liquid nitrogen until use.
To assess cross-presentation assay, 25×10^3 cells MSCs were seeded per well in 24-well plate then pulsed with steroid acid peptide-conjugated for 6 h admixed with OVA. At the end of the pulsing period, the cells were washed to remove excess antigen then 5×10^4 B3Z cells. The cells were incubated for 17-19 hours prior to their lysis and incubation for another 4-6 hours at 37° C. with a CPRG solution. The optical density signal was detected at wavelength 570 using a SynergyH1™ microplate reader (Biotek, Winooski, VT, United States).
To determine whether a similar effect occurs in wild type (WT) (i.e., non-engineered) MSCs, BM-derived MSCs (Example 1) were used instead in the same cross presentation assay with B3Z responder cells.

[3] = tested on: cross-presenting mesenchymal stromal cell line (cpMSC); test: Antigen-presentation assay using the B3Z reporter system, cross-presenting MSC line; assay type: cell-based; settings: cpMSCs, OVA admixed, vs OVA alone or OVA mixed with CA-SV40NLS
Protocol: as §1, §2

[4] = tested on: cpMSCs; test: OVA-AF647 internalization in cpMSCs, flow cytometry; assay type: cell-based; settings: various molar ratios
Protocol: For this experiment, a cross-presenting mesenchymal stromal cell line (cpMSC) was used as the antigen presenting cells, which were pulsed with the OVA cargo labelled with Alexa Fluor 647 (i.e., OVA^647)^TM. OVA^647 fluorescence was measured by flow cytometry. Different ratios of CA (NLS1 RPS17 [FIG. 16A]; NLS3 RPS17 [FIG. 16B]; and PQBP-1 [FIG. 16C] to antigen (CA: OVA=22:1, 12:1, 8:1, 4:1, and 2:1) were tested (hnRNPA1 M9 NLS at 2:1).
(§3) To further dissect the effect of bile acid peptide conjugates on antigen presentation, antigen internalization and processing were evaluated. cpMSCs were pulsed with OVA-labelled with AF647 in the presence of various molar ratios of different bile acid peptide conjugates, NLS1-RPS17 [FIG. 16A]; NLS3 RPS17 [FIG. 16B]; PQBP-1 [FIG. 16C]; and hnRNPA1 M9 NLS [FIG. 6]) and fluorescence was assessed by flow cytometry. […] OVA processing was assessed by pulsing cpMSCs with DQ™-Ovalbumin (OVA-DQ) in the presence of the same bile acid peptide conjugates as in FIGS. 6 and 16.

[5] = tested on: cpMSCs; test: OVA-DQ processing in cpMSCs, flow cytometry; assay type: cell-based; settings: various molar ratios
Protocol: For this experiment, a cross-presenting mesenchymal stromal cell line (cpMSC) was used as the antigen presenting cells, which were pulsed with DQ™ Ovalbumin (i.e., OVADQ). OVADQ fluorescence was measured by flow cytometry. Different ratios of CA (NLS1 RSP17 [FIG. 17A]; NLS3 RPS17 [FIG. 17B]; and PQBP-1 [FIG. 17C] to antigen (CA: OVA=22:1, 12:1, 8:1, 4:1, and 2:1) were tested (hnRNPA1 M9 NLS at 2:1).
as §3

Compound: C[C@H](CCC(=O)O)[C@H]1CC[C@H]2[C@@H]3[C@H](O)C[C@@H]4C[C@H](O)CC[C@]4(C)[C@H]3C[C@H](O)[C@]12C [CA, cholic acid, reference compound]
- antigen cross-presentation of OVA (B3Z response) vs OVA alone [1]: no increase

Compound: c1ccc2c(c1)[I+]c1ccccc1-2 [DPI, diphenyleneiodonium chloride]
- effect of inhibitor on the antigen cross-presentation capacity of CA-hnRNPA1 [2]: neutralization

Compound: C[C@H](CCC(=O)NCC(=O)O)[C@H]1CC[C@H]2[C@@H]3[C@@H](O)C[C@@H]4C[C@H](O)CC[C@]4(C)[C@H]3CC[C@]12C [GUDCA, glycoursodeoxycholic acid, reference compound]
- immunogen enhancer activity across GUDCA: OVA molar ratios ([1]; 2:1, 4:1, 8:1, 12:1 and 22:1): observed at all GUDCA: OVA molar ratios tested
- increase in B3Z response (OD570) over OVA alone ([1]; OVA mixed with unconjugated GUDCA, 22:1, data not shown): ≤ 30%

Compound: CC(=O)c1ccc2c(c1)Nc1ccccc1S2 [ML171]
- effect of inhibitor on the antigen cross-presentation capacity of CA-hnRNPA1 [2]: neutralization

Compound: CC1(C)CC(NC(=O)C[P+](c2ccccc2)(c2ccccc2)c2ccccc2)CC(C)(C)N1[O] [MitoTempo™]
- effect of inhibitor on the antigen cross-presentation capacity of CA-hnRNPA1 [2]: did not neutralize

Compound: CC(=O)N[C@@H](CS)C(=O)O [N-acetylcysteine]
- effect of inhibitor on the antigen cross-presentation capacity of CA-hnRNPA1 [2]: neutralization

Compound: Cc1c(C)c2c(c(C)c1O)CC[C@@](C)(CCC[C@H](C)CCC[C@H](C)CCCC(C)C)O2 [α-tocopherol]
- effect of inhibitor on the antigen cross-presentation capacity of CA-hnRNPA1 [2]: neutralization

Compound: GCDCA: glycochenodeoxycholic acid conjugated to the SV40NLS peptide (SEQ ID NO: 1) ({Glycochenodeoxycholic acid}-CGYGPKKKRKVGG; also: glycochenodeoxycholic acid conjugate, MOD_RES 1 Cholic Acid (ChAc))
- antigen cross-presentation of OVA (B3Z response) vs OVA alone [1]: comparable or higher

Compound: GWG-SV40NLS: cholic acid conjugated to peptide CGWWGYGPKKKRKVGGWWG (SEQ ID NO: 3) (not fully specified (N-terminus); also: cholic acid conjugate, site not given here)
- antigen-presentation activity of cholic acid-NLS peptide conjugates (B3Z response) [3]: strikingly high antigen-presentation activity
- antigen-presentation activity of cholic acid-NLS peptide conjugates (B3Z response) [1]: higher antigen-presentation activity than SV40NLS

Compound: NLS2-RG Domain RPS17: cholic acid conjugated to NLS2-RG Domain RPS17 peptide (SEQ ID NO: 8) (CNKRVCEEIAIIPSKKLRNKGSGRIQRGPVRGIS; cysteine pairing not given here; also: cholic acid conjugate, site not given here)
- antigen-presentation activity of cholic acid-NLS peptide conjugates (B3Z response) [1]: high antigen presentation activity

Compound: NLS3-RPS17: cholic acid conjugated to NLS3 RPS17 peptide SKKLRNKIAGYVTHLMKRI (SEQ ID NO: 11)
- antigen-presentation activity of cholic acid-NLS peptide conjugates (B3Z response) [1]: high antigen presentation activity
- OVA internalization (OVA-AF647 fluorescence) [4]: enhance OVA internalization
- OVA processing (OVA-DQ fluorescence) [5]: enhance OVA processing

Compound: PQBP-1 NLS: cholic acid conjugated to PQBP-1 NLS peptide CADREEGKERRHHRREELAPY (SEQ ID NO: 7) (not fully specified (N-terminus); also: cholic acid conjugate, site not given here)
- antigen-presentation activity of cholic acid-NLS peptide conjugates (B3Z response) [3]: strikingly high antigen-presentation activity
- antigen-presentation activity of cholic acid-NLS peptide conjugates (B3Z response) [1]: strikingly high antigen-presentation activity
- OVA internalization (OVA-AF647 fluorescence) [4]: enhance OVA internalization
- OVA processing (OVA-DQ fluorescence) [5]: enhance OVA processing

Compound: SV40NLS: unconjugated NLS peptide CGYGPKKKRKVGG (SEQ ID NO: 1) (not fully specified) [reference compound]
- antigen cross-presentation of OVA (B3Z response) vs OVA alone [1]: no increase

Compound: UDCA: ursodeoxycholic acid conjugated to the SV40NLS peptide (SEQ ID NO: 1) (CGYGPKKKRKVGG; not fully specified (N-terminus); also: ursodeoxycholic acid conjugate, site not given here)
- antigen cross-presentation of OVA (B3Z response) vs OVA alone [1]: comparable or higher

Compound: cMyc NLS: cholic acid conjugated to cMyc NLS peptide CGYGPAAKRVKLDGG (SEQ ID NO: 12) (not fully specified (N-terminus); also: cholic acid conjugate, site not given here)
- antigen-presentation activity of cholic acid-NLS peptide conjugates (B3Z response) [1]: high antigen presentation activity
